In ChEMBL document CHEMBL3885861, “Open TG-GATES”:

Species on record: Rattus norvegicus
Assay: Open TG-GATES - Regimen: Single
Type: toxicity, organism-based, Sprague-Dawley
Design: regimen Single, gender Male, age 6 weeks
Details: in vivo, po, 300 mg/kg, route gavage, dose level Middle; for APTT / Bas / Eos / Fbg / Hb / Ht / Lym / MCH / MCHC / MCV / Mono / Neu / PT / Plat / RBC / Ret / WBC: tissue Blood; for KIDNEY_L / KIDNEY_R / KIDNEY_TOTAL: tissue Kidney; for LIVER: tissue Liver; for A/G / ALP / ALT / AST / BUN / CRE / Ca / Cl / DBIL / GLC / IP / K / LDH / Na / PL / RALB / TBIL / TC / TG / TP / gamma-GTP: tissue Plasma

For `CCc1cc(C(N)=S)ccn1` [ETHIONAMIDE], the TERMINAL_BW (3 h) was 230.2 g, the APTT (3 h) was 17.6 s and the Bas (3 h) was 0%. It also gave an Eos (3 h) of 1%, a Fbg (3 h) of 208.2 mg/dL and a Hb (3 h) of 13.7 g/dL. The Ht (3 h) was 40.6%, the Lym (3 h) was 79.4% and the MCH (3 h) was 21.7 pg. For the same molecule, the MCHC (3 h) was 33.7%, the MCV (3 h) was 64.3 fL and the Mono (3 h) was 4.8%. The Neu (3 h) was 15.4%, the PT (3 h) was 12.5 s and the Plat (3 h) was 121.1 x10_4/uL. It also gave an RBC (3 h) of 631.4 x10_4/ul, a Ret (3 h) of 7.4% and a WBC (3 h) of 69.7 x10_2/uL. For the same molecule, the KIDNEY_L (3 h) was 1 g, the KIDNEY_R (3 h) was 1.1 g and the KIDNEY_TOTAL (3 h) was 2.1 g. It also gave an LIVER (3 h) of 11.4 g, an A/G (3 h) of 1.8 and an ALP (3 h) of 771 IU/L. For the same molecule, the ALT (3 h) was 30.2 IU/L, the AST (3 h) was 62.8 IU/L and the BUN (3 h) was 15.6 mg/dL. It also gave a CRE (3 h) of 0.6 mg/dL, a Ca (3 h) of 10.8 mg/dL and a Cl (3 h) of 102 meq/L. The DBIL (3 h) was 0.016 mg/dL, the GLC (3 h) was 200 mg/dL and the IP (3 h) was 9.6 mg/dL. The K (3 h) was 4.2 meq/L, the LDH (3 h) was 102.4 IU/L and the Na (3 h) was 141.2 meq/L. It also gave a PL (3 h) of 126.2 mg/dL, an RALB (3 h) of 3.5 g/dL and a TBIL (3 h) of 0.4 mg/dL. It also gave a TC (3 h) of 70.4 mg/dL, a TG (3 h) of 63 mg/dL and a TP (3 h) of 5.5 g/dL. It also gave a gamma-GTP (3 h) of 1.4 IU/L, a TERMINAL_BW (6 h) of 225.7 g and an APTT (6 h) of 18.3 s. It also gave a Bas (6 h) of 0%, an Eos (6 h) of 0.8% and a Fbg (6 h) of 203 mg/dL. The Hb (6 h) was 14.5 g/dL, the Ht (6 h) was 43.1% and the Lym (6 h) was 80.6%. For the same molecule, the MCH (6 h) was 21.8 pg, the MCHC (6 h) was 33.6% and the MCV (6 h) was 64.7 fL. The Mono (6 h) was 6.4%, the Neu (6 h) was 12.4% and the PT (6 h) was 13.5 s. The Plat (6 h) was 124 x10_4/uL, the RBC (6 h) was 667 x10_4/ul and the Ret (6 h) was 7.8%. It also gave a WBC (6 h) of 112.6 x10_2/uL, a KIDNEY_L (6 h) of 1 g and a KIDNEY_R (6 h) of 1 g. It also gave a KIDNEY_TOTAL (6 h) of 2 g, an LIVER (6 h) of 10.7 g and an A/G (6 h) of 2. The ALP (6 h) was 845.6 IU/L, the ALT (6 h) was 32.8 IU/L and the AST (6 h) was 73.2 IU/L. For the same molecule, the BUN (6 h) was 18.4 mg/dL, the CRE (6 h) was 0.5 mg/dL and the Ca (6 h) was 11.3 mg/dL. The Cl (6 h) was 104.2 meq/L, the DBIL (6 h) was 0.008 mg/dL and the GLC (6 h) was 188.6 mg/dL. The IP (6 h) was 9.8 mg/dL, the K (6 h) was 4.3 meq/L and the LDH (6 h) was 135.2 IU/L. It also gave a Na (6 h) of 140 meq/L, a PL (6 h) of 122.8 mg/dL and an RALB (6 h) of 3.7 g/dL. The TBIL (6 h) was 0.5 mg/dL, the TC (6 h) was 66 mg/dL and the TG (6 h) was 34.2 mg/dL. It also gave a TP (6 h) of 5.6 g/dL, a gamma-GTP (6 h) of 1 IU/L and a TERMINAL_BW (9 h) of 224 g. The APTT (9 h) was 18.1 s, the Bas (9 h) was 0% and the Eos (9 h) was 1.4%. For the same molecule, the Fbg (9 h) was 208.6 mg/dL, the Hb (9 h) was 14.2 g/dL and the Ht (9 h) was 42.3%. The Lym (9 h) was 68.8%, the MCH (9 h) was 21.2 pg and the MCHC (9 h) was 33.7%. The MCV (9 h) was 63.1 fL, the Mono (9 h) was 8.4% and the Neu (9 h) was 21.4%. It also gave a PT (9 h) of 14.4 s, a Plat (9 h) of 119.7 x10_4/uL and an RBC (9 h) of 669.8 x10_4/ul. For the same molecule, the Ret (9 h) was 7.6%, the WBC (9 h) was 69.4 x10_2/uL and the KIDNEY_L (9 h) was 1 g. The KIDNEY_R (9 h) was 1 g, the KIDNEY_TOTAL (9 h) was 1.9 g and the LIVER (9 h) was 10.1 g. For the same molecule, the A/G (9 h) was 2, the ALP (9 h) was 660.4 IU/L and the ALT (9 h) was 31 IU/L. It also gave an AST (9 h) of 72 IU/L, a BUN (9 h) of 15.6 mg/dL and a CRE (9 h) of 0.5 mg/dL. For the same molecule, the Ca (9 h) was 10.7 mg/dL, the Cl (9 h) was 106 meq/L and the DBIL (9 h) was 0.01 mg/dL. It also gave a GLC (9 h) of 195.2 mg/dL, an IP (9 h) of 10.3 mg/dL and a K (9 h) of 4.2 meq/L. For the same molecule, the LDH (9 h) was 86.2 IU/L, the Na (9 h) was 143 meq/L and the PL (9 h) was 106.6 mg/dL. The RALB (9 h) was 3.6 g/dL, the TBIL (9 h) was 0.4 mg/dL and the TC (9 h) was 57.2 mg/dL. The TG (9 h) was 19.8 mg/dL, the TP (9 h) was 5.5 g/dL and the gamma-GTP (9 h) was 0.8 IU/L. The TERMINAL_BW (24 h) was 231.6 g, the APTT (24 h) was 17.5 s and the Bas (24 h) was 0%. The Eos (24 h) was 1%, the Fbg (24 h) was 194.8 mg/dL and the Hb (24 h) was 14.2 g/dL. The Ht (24 h) was 42%, the Lym (24 h) was 66.2% and the MCH (24 h) was 21.7 pg. The MCHC (24 h) was 33.7%, the MCV (24 h) was 64.3 fL and the Mono (24 h) was 10%. The Neu (24 h) was 23.2%, the PT (24 h) was 13.6 s and the Plat (24 h) was 112.3 x10_4/uL. For the same molecule, the RBC (24 h) was 653.6 x10_4/ul, the Ret (24 h) was 7.7% and the WBC (24 h) was 95 x10_2/uL. It also gave a KIDNEY_L (24 h) of 1.1 g, a KIDNEY_R (24 h) of 1.1 g and a KIDNEY_TOTAL (24 h) of 2.2 g. The LIVER (24 h) was 11.3 g, the A/G (24 h) was 1.9 and the ALP (24 h) was 1035.2 IU/L. It also gave an ALT (24 h) of 50.4 IU/L, an AST (24 h) of 81.6 IU/L and a BUN (24 h) of 15 mg/dL. The CRE (24 h) was 0.6 mg/dL, the Ca (24 h) was 10.6 mg/dL and the Cl (24 h) was 104.6 meq/L. It also gave a DBIL (24 h) of 0.028 mg/dL, a GLC (24 h) of 190.8 mg/dL and an IP (24 h) of 7.9 mg/dL. The K (24 h) was 4.5 meq/L, the LDH (24 h) was 106.2 IU/L and the Na (24 h) was 141 meq/L. The PL (24 h) was 105.2 mg/dL, the RALB (24 h) was 3.4 g/dL and the TBIL (24 h) was 0.4 mg/dL. It also gave a TC (24 h) of 49.8 mg/dL, a TG (24 h) of 77 mg/dL and a TP (24 h) of 5.2 g/dL. The gamma-GTP (24 h) was 1.4 IU/L.
